Measurements reported in article PMC12473906, “Comparing the Altis RepliGut Organoid System to MDCK Monolayers in Predicting the Oral Absorption of Lenalidomide” (Pharmaceutics, 2025).
Like-named read-outs stand apart in the source and are kept apart here.

Experiments:
BCRP = test system: BCRP; parameters: method as in PMID 24627218; conditions: vesicles with BCRP; cited from earlier work
[1] = cited from earlier work
[2] = Lenalidomide pharmacokinetic study in rats (IV and oral); format: in vivo, Sprague Dawley rats; conditions: for AUC / Cmax / Tmax / half-life / bioavailability: plasma; for bioavailability: po
Experimental: All animal pharmacokinetic experiments were carried out by WuXi (Shanghai, China). Animals were kept on a light-dark cycle and allowed to eat and drink ad libitum. Animals receiving oral doses were fasted overnight. Animals’ condition and behavior were monitored throughout the experiment for signs of pain and distress. We utilized only male rats because similar pharmacokinetics in both genders was previously reported and no dosage adjustment is recommended based on gender, in order to reduce the number of animals required.
Male Sprague Dawley rats (230–280 g) (n = 3 per group) were administered lenalidomide (0.1, 1, 2, 10, and 50 mg/kg). The vehicles for oral and intravenous dosing were 0.6% methylcellulose A15 + 0.2% Tween 80 in water and 10% DMSO + 60% propylene glycol + 30% water, respectively. Serum samples were obtained prior to administration (predose) and at 0.033, 0.083, 0.25, 0.5, 1, 2, 4, and 6 h postdose from the IV group and at 0.083, 0.25, 0.5, 1, 2, 4, 8, and 24 h from the oral groups. Approximately 250 μL was collected at each time point via a catheter at the femoral artery from each rat into prechilled commercial K2-EDTA tubes on wet ice. Samples were centrifuged (3200× g for 10 min at 4 °C) within one hour of collection and frozen at −60 °C or lower before analysis. Approximately 5 mL of whole blood was collected from additional blank animals into prechilled commercial K2-EDTA tubes on wet ice and pooled to serve as blank plasma for bio-analysis. […] Animals were kept in metabolic cages to collect urine, feces, and bile at different periods after dosing. Wet ice was added during the whole collection process for urine and feces. Feces was homogenized in water, and the urine samples and feces homogenates were kept at −70 ± 10 °C until LC-MS/MS analysis. Pharmacokinetic parameters were calculated by non-compartmental methods, as described in Gibaldi and Perrier, using Phoenix® WinNonlin® version 8.5 (Certara L.P., Radnor, PA, USA).
The human equivalent dose (HED) was calculated based on the previously reported AUC after a typical dose in humans. The percentage of lenalidomide excreted in the feces/urine in 24 h was calculated by multiplying the fecal weight/urine volume by its measured lenalidomide concentration and dividing by the total amount of lenalidomide administered.(2) Percentage excreted in feces=100 · Feces weight ·Feces concentration /Dose volume ·Dose concentration (3) Percentage excreted in urine=100 · Urine volume ·Urine concentration /Dose volume ·Dose concentration
For the in vivo study, mass spectrometry detection of lenalidomide was accomplished using a SCIEX QTrap 6500+. Transition pairs used for quantification were as follows: lenalidomide (260.1 → 149.1 Da), labetalol (329.1 → 294.1 Da), indomethacin (357.9 → 139.0 Da), and loperamide (477.1 → 266.2 Da). Separation was achieved using a Waters Acquity UPLC system.
For urine samples, mobile phase A was 0.1% NH4OH and 2 mM NH4OAc in water/acetonitrile (v:v, 95:5), and mobile phase B was 0.1% NH4OH and 2 mM NH4OAc in acetonitrile/water (v:v, 95:5). Mobile phases were operated at the following gradient: initial, 1% B; 0–0.2 min, 1% B; 0.2–1, 30% B; 1–1.5, 100% B; 1.5–1.9, 100% B; 1.9–1.91, 1% B; and 1.91–2, 1% B. The column used was a Waters Acquity UPLC BEH C18 1.7 μm (2.1 × 50 mm) with flow rate of 0.6 mL/min and column oven temperature of 60 °C.
For plasma and feces samples, mobile phase A was 0.1% formic acid and 2 mM HCOONH4 in water, and mobile phase B was 0.1% formic acid and 2 mM HCOONH4 in acetonitrile/water (v:v, 95:5). Mobile phases were operated at the following gradient: initial, 1% B; 0–0.3 min, 1% B; 0.3–1.5, 30% B; 1.5–2.1, 95% B; 2.1–2.4, 95% B; 2.4–2.41, 1% B; and 2.41–2.5, 1% B. The column used was a Waters Acquity UPLC HSS T3 1.8 μm (2.1 × 50 mm) with a flow rate of 0.6 mL/min and a column oven temperature of 45 °C.
For in vivo studies, feces samples were homogenized at a ratio of 1 g feces to 9 mL buffer. […]

[3] = Sprague Dawley, rat, male rats, 0.1 mg/kg PO
[4] = Sprague Dawley, rat, male rats, 1 mg/kg IV
[5] = Sprague Dawley, rat, male rats, 2 mg/kg PO
[6] = Sprague Dawley, rat, male rats, 10 mg/kg PO
[7] = Sprague Dawley, rat, male rats, 50 mg/kg PO

In the case of `Nc1cccc2c1CN(C1CCC(=O)NC1=O)C2=O` (centres unmarked) [Lenalidomide], the BCRP substrate (BCRP) is given as “not a BCRP substrate”, the “Human Fa (fraction absorbed)” value [1] is given as 90% [21] and the Elimination half-life ([1]; humans) is given as 180 to 300 min. The Metabolism ([1]; humans) was less than 5%, the Oral bioavailability ([1]; humans) was greater than 90% and the Route of elimination ([1]; humans) was “Renal”. For the same compound, the dose excreted ([2]; Sprague Dawley, rat, feces, male rats, 0.1 mg/kg PO, read-out: Fecal Recovery) was 12%, the dose excreted ([2]; Sprague Dawley, rat, feces, male rats, 1 mg/kg IV, 24 h, read-out: Fecal Recovery) was 3.2% and the dose excreted ([2]; Sprague Dawley, rat, feces, male rats, 2 mg/kg PO, read-out: Fecal Recovery) was 12%. It also gave a dose excreted ([2]; Sprague Dawley, rat, feces, male rats, 10 mg/kg PO, read-out: Fecal Recovery) of 10%, a dose excreted ([2]; Sprague Dawley, rat, feces, male rats, 50 mg/kg PO, read-out: Fecal Recovery) of 16% and an AUC [2, 3] of 0.29 µM·h. For the same compound, the Cmax [2, 3] was 0.2 µM, the Tmax [2, 3] was 25.2 min and the half-life [2, 3] was 52.2 min. The Cmax [2, 4] was 4.9 µM, the Tmax [2, 4] was 1.8 min and the half-life [2, 4] was 72 min. The AUC ([2]; Sprague Dawley, rat, male rats, 1 mg/kg IV, serum, n=3) was 2.34 µM·h, the AUC [2, 5] was 5.44 µM·h and the Cmax [2, 5] was 1.6 µM. The Tmax [2, 5] was 19.8 min, the half-life [2, 5] was 84 min and the AUC [2, 6] was 15.4 µM·h. It also gave a Cmax [2, 6] of 8.4 µM, a Tmax [2, 6] of 25.2 min and a half-life [2, 6] of 84 min. The AUC [2, 7] was 79.4 µM·h, the Cmax [2, 7] was 29 µM and the Tmax [2, 7] was 30 min. The half-life [2, 7] was 162 min, the dose excreted ([2]; Sprague Dawley, rat, urine, male rats, 0.1 mg/kg PO, read-out: Urinary Recovery) was 47% and the dose excreted ([2]; Sprague Dawley, rat, urine, male rats, 1 mg/kg IV, 24 h, unchanged drug, read-out: Urinary Recovery) was 87%. It also gave a dose excreted ([2]; Sprague Dawley, rat, urine, male rats, 2 mg/kg PO, read-out: Urinary Recovery) of 45%, a dose excreted ([2]; Sprague Dawley, rat, urine, male rats, 10 mg/kg PO, read-out: Urinary Recovery) of 48% and a dose excreted ([2]; Sprague Dawley, rat, urine, male rats, 50 mg/kg PO, read-out: Urinary Recovery) of 43%. The BA ([2]; male rats, 0.1 mg/kg PO) was 122%, the BA ([2]; male rats, 1 mg/kg IV (reference)) was 100% and the BA ([2]; male rats, 2 mg/kg PO) was 116%. For the same compound, the BA ([2]; male rats, 10 mg/kg PO) was 66.0%, the BA ([2]; male rats, 50 mg/kg PO) was 67.9% and the dose excreted ([2]; male, Sprague Dawley, rat, feces, rats, across oral doses, read-out: fecal recovery) was roughly 12%. For the same compound, the bioavailability ([2]; male, Sprague Dawley, rat, rats, all doses) was 68 to 120%, the bioavailability ([2]; male, Sprague Dawley, rat, rats, low doses) was greater than 100% and the Tmax ([2]; male, Sprague Dawley, rat, rats, across oral doses) was roughly 30 min. For the same compound, the CL renal ([2]; male, Sprague Dawley, rat, urine and plasma, iv, 1 mg/kg, read-out: CLR (renal clearance)) was 24 mL/min/kg, the dose excreted ([2]; male, Sprague Dawley, rat, urine, rats, all oral doses, read-out: Urinary recovery) was roughly 45% and the “Human Equivalent Dose” value ([2]; rat 2 mg/kg PO) was roughly 26 mg. For the same compound, the “Human Equivalent Dose” value ([2]; rat 10 mg/kg PO) was roughly 73 mg and the “Human Equivalent Dose” value ([2]; rat 50 mg/kg PO) was roughly 376 mg.
